The text below walks through data of PMC10802969, “Host-defense piscidin peptides as antibiotic adjuvants against Clostridioides difficile” (PLOS ONE, 2024).

“And” between values parts separate entries of the source, which are not always exact repeats. Identical values can stand only once. Like-named read-outs stand apart in the source and are kept apart here.

The subject of assay [1] is C. difficile. Particulars: in vitro, anaerobic; cited from earlier work. An excerpt: These antibiotics target different cellular components, providing us with a way to identify whether increased efficacy relies on specific mechanistic aspects of the antibiotics and peptides. We tested this by inoculating C. difficile R20291 into media co ...
Assay [2] deals with C. difficile R20291 spores. Briefly: Spore viability assay. It counts as cell-based, Clostridioides difficile. The conditions noted are these: 16 h, 37°C; for Viable colonies from spores after peptide exposure (spore data): spores in PBS, plated with 0.1% taurocholic acid, individual samples, S6 File; for Viability of dormant C. difficile spores: peptide at or above the concentrations necessary to kill vegetative cells (4/8 μM p1, 8/15 μM p3). On the procedure: To isolate spores, exponentially growing C. difficile R20291 was inoculated 1:10 into 50 mL of BHIS broth and grown anaerobically at 37°C for 16 h. This culture was removed from anaerobic chamber and ethanol was added to a final concentration of 50%. The sample was rocked aerobically for 6 h. The absence of viable vegetative cells was confirmed by spreading volumes up to 1 mL on BHIS plates and incubating anaerobically for 48 h. […] Peptides were tested at final concentrations corresponding to 1X and 2X their previously observed inhibitory concentrations. All the samples were incubated in the chamber at 37°C for 16 hrs. After incubation, 50 μL aliquots of each sample were plated in triplicate on BHIS plates containing 20 μg/mL erythromycin and 0.1% taurocholic acid agar plates to induce germination. An additional 50 μL aliquot was plated on BHIS containing 20 μg/mL erythromycin to ensure that there was no contamination with vegetative cells. The plates were incubated in the chamber at 37°C for 48 h before the viable colonies were counted.

Assay [3] deals with C. difficile cells. Briefly: Propidium iodide uptake assay (live cell microscopy). It counts as cell-based, Clostridioides difficile. Particulars: 20 μg/mL PI; 4 μM p1/p1Cu, 8 μM p3/p3Cu; apo 30 min, metalated 10 min; anaerobic 37°C; qualitative microscopy. The method, then: Samples containing apo-peptides and metalated peptides were incubated for 30 min and 10 min, respectively. After incubation, cells were centrifuged at 704 rfc for 5 minutes and resuspended in 1.5 mL fresh BHIS broth. Negative controls were incubated with PI for 10 or 30 minutes but contained no piscidin. Positive controls were removed from the anaerobic chamber and incubated aerobically for 1 h at room temperature with propidium iodine and 50% ethanol. Within the anaerobic chamber, samples were injected into rose chambers for microscopic imaging as detailed in [53]. The rose chambers were removed from the anaerobic chamber and the outsides were sterilized with 70% ethanol and 10% bleach. […] Samples were imaged with time-lapse differential interference contrast (DIC) microscopy and propidium iodide was monitored at excitation/emission wavelengths of 535/617 nm.

For assay [4], the system named is C. difficile R20291. Briefly: Growth inhibition assay (16 h overnight growth, culture density at 630 nm). It counts as cell-based, Clostridioides difficile. Particulars: for Concentration of antibiotic necessary to suppress 16-hour growth of C. difficile: >=90% inhibition of overnight growth vs untreated, R20291, anaerobic 37°C, n>=3. On the procedure:
Two-fold serial dilutions of BHIS media containing the indicated concentrations of antibiotics were prepared in sterile 96 well plates (ThermoFisher Scientific). […] Inoculated plates were incubated anaerobically at 37°C for 16 h and then removed from the chamber. […] All experiments were performed with a minimum of three samples, and the means and standard deviations were reported. To analyze the effects of the antibiotics, samples containing peptides and antibiotics were compared to samples containing only peptides by two-way analysis of variance using GraphPad Prism 6.

Assay [5] concerns C. difficile R20291 vegetative cells. Put plainly: Enumeration of colony forming units after overnight exposure. The assay is classed as cell-based, Clostridioides difficile. The conditions noted are these: sub-lethal piscidins (2 μM p1/p1-Cu2+ or 4 μM p3/p3-Cu2+) with sub-lethal antibiotic, 16 h exposure. On the procedure: 200 μL samples of BHIS broth containing the indicated concentrations of antibiotics and/or piscidins were inoculated using a 1:10 ratio, in 96 well plates, with exponentially growing C. difficile R20291 cells and incubated for 16 h at 37°C. Samples were spread as duplicates on BHIS agar plates containing 20 μg/mL erythromycin. These plates were incubated anaerobically at 37°C for 48 h before the viable colonies were counted.

Assay [6] concerns C. difficile R20291. The conditions noted are these: previously observed / recorded values, ref 76 (vancomycin, fidaxomicin), ref 10 (metronidazole), cited from earlier work.
In assay [7] the test system is C. difficile cells. Put plainly: Transmission electron microscopy of cell envelope damage and lysis. The conditions noted are these: 5 min treatment, TEM. The assay is classed as cell-based, Clostridioides difficile. On the procedure:
Overnight cultures were prepared by inoculating individual colonies into 3 mL BHIS broth and grown for 14–16 h at 37°C in the anaerobic chamber. The overnight cultures were diluted 1:20 into 4 mL BHIS broth and the cultures were grown until they reached exponential phase (OD600 0.4–0.6). […] After treatment, the samples were transferred to 2 mL Eppendorf tubes and centrifuged for 2 minutes to collect the pellets. The pellets were individually suspended in 1 mL of 1X phosphate-buffered saline solution with 4% paraformaldehyde, prepared as described in [75]. The samples were fixed in the anaerobic chamber for 45 min. After fixation, the eppendorf tubes were removed from the chamber and the exteriors were sterilized with SporGon (Thomas Scientific), 10% bleach, and 70% ethanol (VWR). Samples were incubated on 200 mesh formvar-coated copper grids (Electron Microscopy Sciences, Hatfield, PA) that were glow-discharged. Grids were washed with water, incubated with 2% uranyl acetate, washed with water, dried overnight at room temperature, and imaged using a JEM-2100F TEM (JEOL, Akishima, Japan) at a voltage of 200 kV and using a Gatan OneView camera. The percentage of lysed cells in each condition and the standard error of each condition were compared using the Wilson confidence interval.

[8] abbreviates: with 2 μM p1 and 4 μM p3 combined.
The mark [9] stands for this setting: 0.5 μg/mL vancomycin, 4 μM p1-Cu2+, or both.

Take Piscidin 1 [p1]: the “Concentration that inhibits growth and kills exponentially growing C. difficile” value in assay [1] is 4 µM. Moreover, the “Viable colonies from spores after peptide exposure (spore data)” value in assay [2] (1X MIC (4 μM p1, 8 μM p3)) was 10100 and 12400 and 9560 and 8440 and 7400 and 9040; in assay [2] (2X MIC (8 μM p1, 15 μM p3)), 9320 and 11000 and 9200 and 8240 and 10000 and 9120. Besides, the “Viability of dormant C. difficile spores” value in assay [2] was “do not affect the viability”. For the same compound, the “Propidium iodide uptake by live C. difficile cells” value in assay [3] is on record as “did not visibly increase PI uptake”.
Take `CCc1c(Cl)c(O)c(Cl)c(O)c1C(=O)O[C@H]1[C@H](O)[C@H](OC)[C@H](OC/C2=C\C=C\C[C@H](O)/C(C)=C/[C@H](CC)[C@@H](O[C@@H]3OC(C)(C)[C@@H](OC(=O)C(C)C)[C@H](O)[C@@H]3O)/C(C)=C/C(C)=C/C[C@@H]([C@@H](C)O)OC2=O)O[C@@H]1C` [Fidaxomicin, fidaxomicin]: the “Fold improvement of effective antibiotic concentration” value in assay [4] (with 2 μM p1-Cu2+ vs no peptide) turned out to be 20 fold; in assay [4] (with 2 μM p1 and 4 μM p3 combined vs no peptide) it was 40 fold; in assay [4] (with 2 μM p1 vs no peptide), 5 fold. Besides, the “Concentration of antibiotic necessary to suppress 16-hour growth of C. difficile” value in assay [4] (with 2 μM p1) is 0.0500 µg/mL; in assay [4] (with 2 μM p1, listed as fidaxomicin) it was 0.05 µg/mL; in assay [4] (with 2 μM p1Cu), 0.0125 µg/mL; in assay [4] (setting [8]), 0.00625 µg/mL; in assay [4] (with 4 μM p3) it was 0.050 µg/mL; in assay [4] (with 4 μM p3Cu), over 0.100 µg/mL. The “Concentration of antibiotic necessary to suppress 16-hour growth of C. difficile” value in assay [4] (with 4 μM p3Cu, listed as fidaxomicin) was over 0.1 µg/mL. In addition, in assay [5], the “Number of viable cells after co-treatment” value (“Number of viable cells” for short) was “further reduced the number of viable cells”. The “Concentration of antibiotic necessary to suppress 16-hour growth of C. difficile, no peptide” value (“Concentration … no peptide” for short) in assay [6] is 0.256 µg/mL.
As to `CN[C@H](CC(C)C)C(=O)N[C@H]1C(=O)N[C@@H](CC(N)=O)C(=O)N[C@H]2C(=O)N[C@H]3C(=O)N[C@H](C(=O)N[C@H](C(=O)O)c4cc(O)cc(O)c4-c4cc3ccc4O)[C@H](O)c3ccc(c(Cl)c3)Oc3cc2cc(c3O[C@@H]2O[C@H](CO)[C@@H](O)[C@H](O)[C@H]2O[C@H]2C[C@](C)(N)[C@H](O)[C@H](C)O2)Oc2ccc(cc2Cl)[C@H]1O` [Vancomycin, vancomycin], the “Number of cells with cytoplasm / membrane leakage” value in assay [7] (0.5 μg/mL vancomycin (22 cells observed) or 4 μM p1-Cu2+ (14 cells observed)) came to 8. In assay [7] (0.5 μg/mL vancomycin (of 22 cells), 4 μM p1-Cu2+ (of 14), both (of 19)), the “Number of lysed cells (severe to complete cell lysis)” value came to 0. The “Proportion of lysed cells ("percentage")” value in assay [7] (setting [9]) turned out to be 0. The “Wilson estimate of proportion of lysed cells” value in assay [7] (setting [9]) was 0.07692. The “Concentration of antibiotic necessary to suppress 16-hour growth of C. difficile” value in assay [4] (with 2 μM p1) came to 2.000 µg/mL; in assay [4] (with 2 μM p1, listed as vancomycin) it was 2 µg/mL; in assay [4] (with 2 μM p1Cu) it was 0.0625 µg/mL; in assay [4] (setting [8]) it was 0.125 µg/mL; in assay [4] (with 4 μM p3), 0.500 µg/mL; in assay [4] (with 4 μM p3, listed as vancomycin) it was 0.5 µg/mL. Besides, the “Concentration of antibiotic necessary to suppress 16-hour growth of C. difficile” value in assay [4] (with 4 μM p3Cu) came out at 0.250 µg/mL; in assay [4] (with 4 μM p3Cu, listed as vancomycin), 0.25 µg/mL. The “Number of viable cells” value in assay [5] is recorded as “further reduced the number of viable cells”. For the same compound, the results for the “Concentration … no peptide” value in assay [6] (listed as vancomycin) and in assay [6] were 4 µg/mL and 4.000 µg/mL, respectively.
In the case of Piscidin 3 [p3], in assay [1], the “Concentration that inhibits growth and kills exponentially growing C. difficile” value is 8 µM. Further, the “Viable colonies from spores after peptide exposure (spore data)” value in assay [2] (1X MIC (4 μM p1, 8 μM p3)) was 8760 and 8840 and 10100 and 7960 and 8080 and 8480; in assay [2] (2X MIC (8 μM p1, 15 μM p3)), 8120 and 7200 and 9000 and 8280 and 10200 and 11400. Moreover, the “Viability of dormant C. difficile spores” value in assay [2] is listed as “do not affect the viability”. In assay [3], the “Propidium iodide uptake by live C. difficile cells” value is listed as “did not visibly increase PI uptake”.
Turning to `O=C(O)c1cn(C2CC2)c2cc(N3CCNCC3)c(F)cc2c1=O` [Ciprofloxacin, ciprofloxacin], the “Concentration … no peptide” value in assay [6] is over 128 µg/mL.
For `Cc1ncc([N+](=O)[O-])n1CCO` [Metronidazole, metronidazole], the “Concentration of antibiotic necessary to suppress 16-hour growth of C. difficile” value in assay [4] (with 2 μM p1) stood at 0.500 µg/mL; in assay [4] (with 2 μM p1, listed as metronidazole) it was 0.5 µg/mL; in assay [4] (with 2 μM p1Cu), 1.0000 µg/mL; in assay [4] (with 2 μM p1Cu, listed as metronidazole) it was 1 µg/mL; in assay [4] (with 4 μM p3), 0.0625 µg/mL; in assay [4] (with 4 μM p3Cu), 1.000 µg/mL. In addition, the “Concentration of antibiotic necessary to suppress 16-hour growth of C. difficile” value in assay [4] (with 4 μM p3Cu, listed as metronidazole) stood at 1 µg/mL. For the same compound, in assay [5], the “Number of viable cells” value was “further reduced the number of viable cells”. The results for the “Concentration … no peptide” value in assay [6] (listed as metronidazole) and in assay [6] were 2 µg/mL and 2.000 µg/mL, respectively.
